# ChEMBL document CHEMBL6134848, “Deuteration Strategy-Inspired Design of Novel Diarylpyrimidine Derivatives as Potent Non-Nucleoside Reverse Transcriptase Inhibitors Featuring Improved Efficacy, Selectivity, and Druggability” (J Med Chem, 2025)
# Key:
# [1] = MRT (0 to t) in Sprague-Dawley rat at 1 mg/kg, iv measured for 0.083 to 24 hrs by LC-MS/MS analysis; format: ADME, organism-based; settings: in vivo, time 0.083-24 hrs
# [2] = Acute toxicity in ICR mouse assessed as pathological change in liver at 2000 mg/kg, IG measured for 14 days by H and E staining based analysis; format: organism-based; settings: in vivo, po, 336 h, time 14 day
# [3] = Stability in human liver microsomes assessed as compound remaining at […] preincubated for 30 mins in ice-water bath followed by incubation at 37 degreeC for 5 mins and further addition of NADPH/UDPGA measured 20.86 mins by LC-MS/MS analysis; format: ADME, Microsome; settings: time 55.86 min, read-out: Stability
# [4] = test system: Human immunodeficiency virus 1; test: Antiviral activity against drug-resistant HIV-1 harboring RT E138K mutant infected in human MT4 cells assessed as protection against virus-induced cytopathicity measured after 5 days post-infection by MTT assay; format: functional, organism-based; settings: Human immunodeficiency virus 1, MT4, 120 h
smiles,measurement,setting,value
[2H]C([2H])([2H])c1cc(C#N)cc(C([2H])([2H])[2H])c1Oc1nc(NC2CCN(Cc3ccc(S(N)(=O)=O)cc3)CC2)nc2ccsc12,MRT last,[1],49.2 min
same,Activity,[2],Non-toxic
same,remaining at 0.347667 h,[3],58.8%
same,EC50,[4],7.75 nM
